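Each compound was tested at five concentrations against cells in 96-well plates for 48 hours. Here, GI50 denotes the concentration required for 50% inhibition of growth.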 Active and inactive are the calls of the source. No stated cut-off is given here; in the data, active = GI50 up to about 1.1 µM and inactive = higher.
Assays:
Test in all cases: DTP human tumour cell line panel, 48 h
[1] = test system: SR
[2] = test system: NCI-H460
[3] = test system: IGROV-1
[4] = test system: SN12C
[5] = test system: M14
[6] = test system: DU-145
[7] = test system: 786-0
[8] = test system: MDA-MB-435
[9] = test system: MOLT-4
[10] = test system: HCT-116
[11] = test system: LOX IMVI
[12] = test system: MCF7
[13] = test system: HOP-92
[14] = test system: SK-MEL-28
[15] = test system: SW-620
[16] = test system: SF-268
[17] = test system: PC-3
[18] = test system: RXF 393
[19] = test system: SK-MEL-2
[20] = test system: MDA-N

| SMILES | GI50 [1] | GI50 [2] | GI50 [3] | GI50 [4] | GI50 [5] | GI50 [6] | GI50 [7] | GI50 [8] | GI50 [9] | GI50 [10] | GI50 [11] | GI50 [12] | GI50 [13] | GI50 [14] | GI50 [15] | GI50 [16] | GI50 [17] | GI50 [18] | GI50 [19] | GI50 [20] |
| --- | --- | --- | --- | --- | --- | --- | --- | --- | --- | --- | --- | --- | --- | --- | --- | --- | --- | --- | --- | --- |
| [N-]=[N+]=Nc1cccc(-c2nnc(Cl)cc2O)c1 | > 100 µM (inactive) | > 100 µM (inactive) | > 100 µM (inactive) | > 100 µM (inactive) | > 100 µM (inactive) | > 100 µM (inactive) | > 100 µM (inactive) | > 100 µM (inactive) | > 100 µM (inactive) | > 100 µM (inactive) | > 100 µM (inactive) | > 100 µM (inactive) | > 100 µM (inactive) | > 100 µM (inactive) | > 100 µM (inactive) | > 100 µM (inactive) | > 100 µM (inactive) | > 100 µM (inactive) | – | – |
| CCOC(=O)C(=O)CC(=O)C1=C(c2ccccc2OC)CC(c2cccs2)=CC1=O | – | 48.5 µM (inactive) | 15.3 µM (inactive) | > 100 µM (inactive) | 26.1 µM (inactive) | > 100 µM (inactive) | > 100 µM (inactive) | 35.9 µM (inactive) | 37.1 µM (inactive) | 31.7 µM (inactive) | 83.9 µM (inactive) | – | 71.1 µM (inactive) | > 100 µM (inactive) | 72.3 µM (inactive) | > 100 µM (inactive) | 24 µM (inactive) | 86.9 µM (inactive) | 78.9 µM (inactive) | 36.1 µM (inactive) |
| N#CC(C(=O)c1cccnc1Cl)c1nc2cc(C(F)(F)F)ccc2s1 (stereo not given) | – | 59.6 µM (inactive) | > 100 µM (inactive) | 27.7 µM (inactive) | 50.8 µM (inactive) | > 100 µM (inactive) | 88.9 µM (inactive) | 47.2 µM (inactive) | > 100 µM (inactive) | 26.1 µM (inactive) | 37.3 µM (inactive) | – | 12.4 µM (inactive) | 56.8 µM (inactive) | 47.1 µM (inactive) | 64.9 µM (inactive) | – | 42.3 µM (inactive) | – | – |
| CSc1nncc(-c2cc3c(c(SC)n2)CCC3)n1 | – | – | 2.4 µM (inactive) | > 100 µM (inactive) | > 100 µM (inactive) | > 100 µM (inactive) | 79.6 µM (inactive) | > 100 µM (inactive) | – | 96.2 µM (inactive) | – | – | – | > 100 µM (inactive) | 82.4 µM (inactive) | 76 µM (inactive) | > 100 µM (inactive) | > 100 µM (inactive) | > 100 µM (inactive) | – |
| COC(=O)[C@](C)(Cc1ccccc1)NC(=O)[C@@H](C)N1[C@@H](c2ccccc2)COC1(C)C | 27.5 µM (inactive) | 31 µM (inactive) | 51.2 µM (inactive) | – | 63.7 µM (inactive) | – | 72.4 µM (inactive) | 48.8 µM (inactive) | 34.4 µM (inactive) | 38.5 µM (inactive) | 77.6 µM (inactive) | 52 µM (inactive) | 36 µM (inactive) | > 100 µM (inactive) | 51.8 µM (inactive) | 85.7 µM (inactive) | 29.1 µM (inactive) | 75.3 µM (inactive) | > 100 µM (inactive) | 44.2 µM (inactive) |
| O=S(=O)(/N=C(\NO)Nc1ccc(Cl)cc1)c1cccc2nsnc12 | – | 38.7 µM (inactive) | 28.1 µM (inactive) | 21.9 µM (inactive) | 35.4 µM (inactive) | 41.3 µM (inactive) | 21.6 µM (inactive) | 23 µM (inactive) | 12.8 µM (inactive) | 32 µM (inactive) | 20.3 µM (inactive) | – | 22.1 µM (inactive) | 18.7 µM (inactive) | 31.8 µM (inactive) | 34.4 µM (inactive) | 30.3 µM (inactive) | 19.6 µM (inactive) | 16.4 µM (inactive) | 54.1 µM (inactive) |
| CC(C)(C)OC(=O)N1C[C@H](CC(=O)OCc2ccccc2)C[C@H]1C(=O)OCC(Cl)(Cl)Cl | 2.04 µM (inactive) | 11.2 µM (inactive) | – | 6.62 µM (inactive) | 6.46 µM (inactive) | > 50 µM (inactive) | 5.96 µM (inactive) | 5.31 µM (inactive) | 1.19 µM (inactive) | 3.88 µM (inactive) | 4.97 µM (inactive) | 3.11 µM (inactive) | 1.79 µM (inactive) | 13.6 µM (inactive) | 11.4 µM (inactive) | 8.28 µM (inactive) | 2.17 µM (inactive) | 6.15 µM (inactive) | 6.7 µM (inactive) | – |
| CCOC(=O)N/N=C(\CC)OCC | > 100 µM (inactive) | > 100 µM (inactive) | > 100 µM (inactive) | > 100 µM (inactive) | > 100 µM (inactive) | > 100 µM (inactive) | > 100 µM (inactive) | – | > 100 µM (inactive) | > 100 µM (inactive) | > 100 µM (inactive) | > 100 µM (inactive) | – | – | – | > 100 µM (inactive) | > 100 µM (inactive) | > 100 µM (inactive) | > 100 µM (inactive) | > 100 µM (inactive) |
| Cc1cc(O)nc(NNC(C#N)c2c(O)ccc3ccccc23)n1 (stereo not given) | 2.7 µM (inactive) | 2.89 µM (inactive) | 3.4 µM (inactive) | 3.18 µM (inactive) | 2.51 µM (inactive) | – | 3.52 µM (inactive) | – | 2.34 µM (inactive) | 2.43 µM (inactive) | 4.08 µM (inactive) | – | 19.1 µM (inactive) | 5.18 µM (inactive) | 4.56 µM (inactive) | 2.28 µM (inactive) | – | 10.4 µM (inactive) | 12.2 µM (inactive) | – |
| CCOP(=O)(OCC)/C(=C\N1C(=O)CC(=O)NC1=S)C(=O)OC | – | > 100 µM (inactive) | > 100 µM (inactive) | > 100 µM (inactive) | > 100 µM (inactive) | > 100 µM (inactive) | > 100 µM (inactive) | > 100 µM (inactive) | > 100 µM (inactive) | > 100 µM (inactive) | > 100 µM (inactive) | > 100 µM (inactive) | > 100 µM (inactive) | > 100 µM (inactive) | > 100 µM (inactive) | > 100 µM (inactive) | – | > 100 µM (inactive) | > 100 µM (inactive) | > 100 µM (inactive) |
| CC(=O)NC(NCCN)(c1ccccc1)c1ccccc1 | > 100 µM (inactive) | > 100 µM (inactive) | – | > 100 µM (inactive) | > 100 µM (inactive) | > 100 µM (inactive) | > 100 µM (inactive) | > 100 µM (inactive) | > 100 µM (inactive) | > 100 µM (inactive) | > 100 µM (inactive) | > 100 µM (inactive) | 16.9 µM (inactive) | > 100 µM (inactive) | > 100 µM (inactive) | > 100 µM (inactive) | – | > 100 µM (inactive) | – | – |
| NC(=O)c1c2c(n3ccccc13)C(=O)c1ccccc1C2=O | > 100 µM (inactive) | 19.4 µM (inactive) | 42.7 µM (inactive) | – | 18.1 µM (inactive) | > 100 µM (inactive) | 71.8 µM (inactive) | 20.2 µM (inactive) | > 100 µM (inactive) | > 100 µM (inactive) | > 100 µM (inactive) | > 100 µM (inactive) | 31 µM (inactive) | > 100 µM (inactive) | > 100 µM (inactive) | > 100 µM (inactive) | > 100 µM (inactive) | 37 µM (inactive) | 32.3 µM (inactive) | – |
| Cc1n[nH]c(=O)n1/N=C/c1ccc([N+](=O)[O-])o1 | – | 14.3 µM (inactive) | – | 5.64 µM (inactive) | 11.6 µM (inactive) | 10.4 µM (inactive) | 15.1 µM (inactive) | 5.3 µM (inactive) | 5.7 µM (inactive) | 8.39 µM (inactive) | 8.85 µM (inactive) | 18 µM (inactive) | – | 11.2 µM (inactive) | 13.9 µM (inactive) | 17.4 µM (inactive) | 29 µM (inactive) | 0.881 µM (active) | 14.2 µM (inactive) | – |
| CC(=O)OC1CC2C(C)(C)C(=O)C=CC2(C)C2CCC3(C)C(c4ccoc4)OC(=O)C4OC43C12C (stereo not given) | – | 3.48 µM (inactive) | 10.1 µM (inactive) | 4.21 µM (inactive) | 10.5 µM (inactive) | 2.85 µM (inactive) | 9.46 µM (inactive) | 3.27 µM (inactive) | 8.2 µM (inactive) | 2.4 µM (inactive) | – | 4.69 µM (inactive) | 14.5 µM (inactive) | 20.4 µM (inactive) | 6.28 µM (inactive) | 28.5 µM (inactive) | 6.61 µM (inactive) | 4.66 µM (inactive) | 13 µM (inactive) | – |
| O=C1OC(=O)c2cc(S(=O)(=O)c3ccc4c(c3)C(=O)OC4=O)ccc21 | – | > 100 µM (inactive) | > 100 µM (inactive) | > 100 µM (inactive) | > 100 µM (inactive) | > 100 µM (inactive) | > 100 µM (inactive) | > 100 µM (inactive) | – | > 100 µM (inactive) | > 100 µM (inactive) | > 100 µM (inactive) | – | > 100 µM (inactive) | > 100 µM (inactive) | > 100 µM (inactive) | > 100 µM (inactive) | > 100 µM (inactive) | > 100 µM (inactive) | > 100 µM (inactive) |
| Nc1ccc(S(=O)(=O)Nc2nnc(S(N)(=O)=O)s2)cc1 | > 100 µM (inactive) | > 100 µM (inactive) | – | – | > 100 µM (inactive) | > 100 µM (inactive) | > 100 µM (inactive) | > 100 µM (inactive) | > 100 µM (inactive) | > 100 µM (inactive) | > 100 µM (inactive) | > 100 µM (inactive) | 34.5 µM (inactive) | – | > 100 µM (inactive) | > 100 µM (inactive) | – | > 100 µM (inactive) | – | – |
